# Test results taken from EP0497921B1, “METHOD FOR INHIBITING ENZYMATIC SYNTHESIS OF NUCLEIC ACIDS USING ISOPSORALENS” (ISAACS, Stephen T., priority 1989, dated 1991).
# Marks after values point to notes of the source that are not given here.
# Assays:
# [1] = test system: calf thymus DNA; assay: Equilibrium dialysis, dark binding (association constant); settings: for Ka: 4°C, five days, dark, isopsoralen:DNA base pair ratio 1:15
# Protocol: Equilibrium Dialysis was used to determine the association ("dark binding") constants of AMIP, AMDMIP and MIP with calf thymus DNA. The tritium labelled isopsoralens were used for the experiment. The method was a modification of that of Isaacs et al. Biochemistry 16, 1058-1066 (1977).
# Spectrapor 2 dialysis tubing (Spectrum) was pretreated by boiling in saturated sodium bicarbonate then rinsed thoroughly with double distilled water. Calf thymus DNA (Sigma) was prepared at a concentration of 50 µg/ml in 1 X TE. The samples were prepared by placing 1.0 ml of the DNA solution inside the bag and using enough isopsoralen to provide an isopsoralen:DNA base pair ratio of 1:15. The samples were prepared with the tritiated isopsoralen ("Drug") placed either inside or outside
# of the dialysis bag (each sample was placed in a scintillation vial containing a small magnetic stir bar). The samples were stirred at 4°C for five days in the dark. After this period the bags were removed, opened, and the radioactivity inside and outside the bag determined by scintillation counting. The concentration of the DNA was determined by measuring optical density at 260 nm. The […] constant (Ka) was calculated from this information (Table 9). Preparing the samples in duplicate with the isopsoralen both inside and outside the dialysis bag provided a check that the system had come to equilibrium at the end of the dialysis period (the amount of isopsoralen inside and outside the bag at equilibrium should be, and was, the same in both cases).
# The association constant, Ka is defined here as Ka = ([P:DNA])/([P] [DNA]) [formula] for the reaction P + DNA = P:DNA where p = free drug in solution, DNA = DNA binding site for the drug, and P:DNA = drug associated with the DNA. The following summarizes the Ka values determined for the compounds: […]
# [2] = molecular target: Taq polymerase (Thermus aquaticus, UniProt P19821); assay: Primer extension on 71-mer after random addition of compound or addition of photoproduct; assay type: biochemical; settings: for extension products, irradiated samples: 71-mer irradiated 15 minutes on CE-I at 25°C with AMIP (200 µg/ml), AMDMIP (200 µg/ml) or MIP (60 µg/ml), extension 5 minutes at 55°C
# Excerpt: In this experiment, the ability of AMIP, AMDMIP and MIP to block replication of 71-mer is investigated by randomly adding each compound to the 71-mer. of course, addition may only be random in the sense that one or more adducts may be formed with any one strand of nucleic acid. The actual placement of the isopsoralen may be governed by preferential binding at particular sites (e.g. A:T). In addition to blockage by random adducts, photoproducts of the various isopsoralens may be providing an inhibitory effect. No attempt to separate the effects of photoproduct from the effects of covalent adducts on the 71-mer template was made in this series of experiments.
# In these experiments, the 71-mer template (10^-9 M) was primed with ^32P-SK-39 (10^-8) and extended with Taq polymerase in a total volume of 20 µl. The dNTP concentration was 200 µM. In the control samples, the 71-mer, the primer, and the dNTPs were mixed in Taq buffer in a volume of 18 µl. These samples were initially denatured at 95°C for 5 minutes, followed by equilibration at 550C for 3 minutes. Taq enzyme was then added (0.5 units) and the extension reaction was carried out for 5 minutes at 55°C. The reaction was stopped by making the solution 10 mM in EDTA. In another set of samples, the 71-mer in 10 µl was mixed with either AMIP (200 µg/ml), AMDMIP (200 µg/ml), or MIP (60 µg/ml). Half of these samples were irradiated for 15 minutes on the CE-I device at 25°C. The other half was kept in the dark as controls. These samples were then mixed with the primer and dNTPs as before, and were subjected to the same thermal profile and extension reactions as the samples that were described earlier. The results were examined by PAGE. The extended product bands were identified by autoradiography, excised and counted (data not shown).
# In this experiment, the ability of two different Phenylazide derivatives (see Table 1), photobiotin (Vector Labs) and monoazide ethidium chloride, to block replication of 71-mer was investigated by randomly adding each compound to the 71-mer. Again, addition may only be random in the sense that one or more adducts may be formed with any one strand of nucleic acid. The actual placement of these compounds may be governed by preferential binding at particular sites (e.g. A:T). In addition to blockage by random adducts, there may be inhibition by photoproducts. As in Example 23, no attempt was made to separate the impact of photoproducts from that of covalent binding of photoreactive compound on the 71-mer.
# The two compounds, photobiotin and monoazide ethidium chloride, have different spectral characteristics. To activate these compounds, two different wavelength regions were selected using a single light source (General Electric Sunlamp, Model RSM, 275 watt). The light source was positioned 10 cm above uncapped Eppendorph tubes which contained samples to be irradiated. The samples were kept on ice during irradiation. A pyrex dish was placed between the lamp and the samples.
# For samples containing photobiotin, 2.5 cm of water was added to the pyrex dish to help remove some of the infrared radiation. The samples were irradiated for 15 minutes.
# For samples containing monoazide ethidium chloride, wavelengths less than 400 nm were filtered out by using 2.5 cm of an aqueous solution of 2.9 M NaNO2. Removal of short wavelengths (i.e. wavelengths shorter than 400 nm) is necessary for the use of monoazide ethidium chloride. Irradiation of this compound with shorter wavelengths results in conversion to non-active forms (data not shown). Wavelengths below 400 nm are therefore undesirable for use with this compound.
# In this experiment, the 71-mer template (2 x 10^-9 M) in 10 µl was mixed with either no photoreactive compound, photobiotin (6 x 10^-6 M), or monoazide ethidium (1.4 x 10^-3 M). Half of each of these samples were irradiated on ice for 15 minutes with wavelengths appropriate for each specific photoreactive compound. […]
# [3] = Solubility of photoreactive compounds in 1 X TE (optical density of filtrate); assay type: physicochemical; settings: 1 x te
# Protocol: The solubilities of AMIP, AMDMIP, DMIP, MIP and isopsoralen (IP) were determined experimentally according to the scheme set forth in Figure 5. To perform the solubility measurement, it was first necessary to establish known optical densities for a 1 µg/ml solution of each compound. These were determined by preparing either ethanolic or aqueous stocks of each compound at known concentrations in 1 x TE, then measuring the optical density of each solution. From this information, the absorption of a 1 µg/ml solution was computed. Alternatively, the extinction coefficient may be thus determined and used in the same fashion. In this manner, the following absorption data was collected:
# Following this step, undissolved compound was removed by filtration using a 0.2 u nylon-66 syringe filter (Arco LC13; Gelman). The concentration of the remaining soluble compound was then determined by measuring the optical density of the filtrate and computing the solubility from the known optical density of a 1 µg/ml solution of that compound. The solubility of the compounds was thus determined to be as follows: […]
# [4] = tritiated drug placed inside dialysis bag
# [5] = tritiated drug placed outside dialysis bag
# Sequence of Taq polymerase (P19821 whole entry): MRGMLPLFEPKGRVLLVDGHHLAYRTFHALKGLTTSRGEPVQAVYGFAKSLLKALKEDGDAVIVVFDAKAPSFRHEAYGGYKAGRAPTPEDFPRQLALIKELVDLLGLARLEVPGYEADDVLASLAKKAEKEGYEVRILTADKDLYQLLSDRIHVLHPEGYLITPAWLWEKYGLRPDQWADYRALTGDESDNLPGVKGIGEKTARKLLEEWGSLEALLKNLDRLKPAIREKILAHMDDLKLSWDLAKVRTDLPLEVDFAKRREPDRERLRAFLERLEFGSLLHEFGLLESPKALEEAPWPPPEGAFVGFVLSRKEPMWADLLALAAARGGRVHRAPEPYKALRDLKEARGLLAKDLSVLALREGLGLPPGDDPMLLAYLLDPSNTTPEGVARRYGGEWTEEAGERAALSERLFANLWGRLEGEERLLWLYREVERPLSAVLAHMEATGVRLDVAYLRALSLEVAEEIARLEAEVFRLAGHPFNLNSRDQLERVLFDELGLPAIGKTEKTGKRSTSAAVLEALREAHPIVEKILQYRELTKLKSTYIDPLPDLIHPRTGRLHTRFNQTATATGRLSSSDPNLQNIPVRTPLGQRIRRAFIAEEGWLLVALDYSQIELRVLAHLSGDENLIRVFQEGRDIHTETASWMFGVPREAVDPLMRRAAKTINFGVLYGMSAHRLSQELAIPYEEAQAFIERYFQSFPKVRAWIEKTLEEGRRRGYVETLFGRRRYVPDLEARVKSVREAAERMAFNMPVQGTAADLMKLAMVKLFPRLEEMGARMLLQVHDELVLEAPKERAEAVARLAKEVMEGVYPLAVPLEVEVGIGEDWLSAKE
Compound,Ka relative to AMDMIP ([1]; compared with AMDMIP) [%],"Ka [1, 4]","Ka [1, 5]","extension products, irradiated samples [2]",Solubility in 1 X TE [3],"extension products, 71-mer irradiated in the presence of AMDMIP ([2]; 200 µg/ml AMDMIP, CE-I device at 25°C)","extension products, dark controls ([2]; unirradiated AMDMIP added to unirradiated 71-mer)",amount of full length product relative to the control samples ([2]; irradiated MIP (60 µg/ml))
5-Aminomethylisopsoralen [AMIP],28,2.96 x 10^4,2.21 x 10^4,not extended at all,"21,000 µg/ml",–,–,–
"4'-Aminomethyl-4,5'-dimethylisopsoralen [AMDMIP]",–,7.66 x 10^4,1.07 x 10^5,not extended at all,"> 22,700 * µg/ml",no extension products at all,full length extension product,–
"Cc1cc2occc2c2oc(=O)ccc12 [MIP, 5-Methylisopsoralen]",–,9.08 x 10^3,2.07 x 10^3,some full length extension product and a minor truncated product,–,–,–,half
